This is an account of results in patent publication US11040954B1, “CXCR3 receptor agonists” (RECEPTOS LLC, priority 2016, dated 2021).

The target of one series is T1, CXCR3 (Homo sapiens, UniProt P49682).
T1 construct: host or cells: CHO-K1 (cAMP Hunter CHOK1 CXCR3 Gi cell line)
T1 sequence (P49682 1-368): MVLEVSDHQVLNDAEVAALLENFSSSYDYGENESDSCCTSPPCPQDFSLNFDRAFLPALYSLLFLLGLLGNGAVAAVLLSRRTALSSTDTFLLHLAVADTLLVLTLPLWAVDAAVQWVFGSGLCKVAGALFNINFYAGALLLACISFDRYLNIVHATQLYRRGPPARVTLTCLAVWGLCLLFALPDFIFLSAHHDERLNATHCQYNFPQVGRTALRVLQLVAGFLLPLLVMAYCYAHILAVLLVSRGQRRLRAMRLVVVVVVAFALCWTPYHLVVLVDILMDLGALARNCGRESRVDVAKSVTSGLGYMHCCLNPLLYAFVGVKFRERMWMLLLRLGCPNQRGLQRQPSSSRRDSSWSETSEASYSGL
Description: CXCR3 cAMP agonist assay (cAMP Hunter CHOK1 CXCR3 Gi cell line, forskolin-stimulated, HitHunter cAMP detection). The format is cell-based. The settings on record: cAMP Hunter CHOK1 CXCR3 Gi cells, 20 μM forskolin, 30 minutes; read-out: Activity (CXCR3 cAMP agonist assay compound EC50). In short, it runs like this:
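CHOK1 cells expressing human CXCR3 with Gi coupling, 50,000/well in suspension in HBSS/10 mM HEPES/0.1% BSA pH 7.4, were co-treated with 20 μM forskolin and compound (12-point, 0-10 μM, 1% DMSO) for 30 min. cAMP was read by enzyme-complementation luminescence; CXCL11 dose response set maximum efficacy.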

The nature of series [1]: Mouse pharmacokinetics after oral gavage, plasma drug concentration by LC-MS/MS (BALB/c). It is filed as in vivo. The settings on record: 10 mg/kg, male mice; for Cmax / AUC(0-t): mouse, plasma; for AUC(0-t): read-out: AUC0-24. Here is the method:
(§1) Compounds were formulated in 5% DMSO/5% Tween20 in H2O, sonicated, vortexed, and put on stir plate overnight at a dose volume of 10 mL/kg. Balb/C (Jackson laboratories) or C57bl/6 (Taconic Biosciences) mice (8-9 weeks old) were acclimated to the colony for 3 days prior to dosing. Water and food were provided ab libitum. Compounds were administered by oral gavage. Groups of six animals received 3 to 4 bleeds per day with one terminal bleed. The time points were 30 min, 1 h, 2 h, 4 h, 6 h, 8 h, 24 h. Plasma was collected via centrifugation and analyzed for drug concentrations.
(§2) Preparation of Study Samples and Standards for Analysis by LC-MS/MS
(§3) 50 μl of plasma was aliquoted into a 96 well deep-well polypropylene plate (2 mL) to which 5 μL of DMSO was added. For standards, 5 μl of test compound in DMSO at […] the standard concentration was added to 50 μl of blank matrix in a 96 well deep-well polypropylene plate. For example, for a 300 nM standard, the 10× DMSO concentration was 3 μM. Study samples that require dilution are diluted with the appropriate blank matrix. For example, for a 10× dilution, 5 μL of study sample is added to 45 μl of blank matrix. Protein was precipitated from study samples and standards with the addition of 150 μl of acetonitrile. After a clean plate map was placed firmly over the top of the 96-well plate, a bench top shaker was used for 1 min to ensure complete precipitation of protein. The precipitated protein was pelleted by centrifuging for 3,000 rpm for 10 min at 20° C. and then the clear supernatant was transferred to a clean 96-well plate and spun again under the same conditions in order to pellet any solid material that may have been transferred.
(§4) Analysis of Study Samples and Standards with LCMS with MRM Detection
(§5) An Agilent 1200 HPLC with binary pump and a Leap CTC with fast wash autosampler were used to introduce samples to the mass spectrometer.
(§6) The column used was a Phenomenex Luna C8 30×2 mm 5 μm with a security guard. Mass detection was performed by an Applied Biosystems 4000 Qtrap in MRM mode and ionization was achieved by positive electrospray with a source temperature of 500° C. The ion transitions, […] potential and collision energies were dependent on the specific analyte.
(§7) Prepared samples were usually analyzed in reverse chronological order with bracketing standard curves. Typically at least 6 standards were used for quantification with a percent accuracy of +/−15% for all standards except at the LLOQ where a percent accuracy of +/−20% was allowed. The concentration time profile was fit using a one compartment model for the applicable mode of dosing using Phoenix WinNonLin 6.4.

Series [2] can be described thus: Mouse pharmacokinetics after oral gavage, plasma drug concentration by LC-MS/MS (C57BL/6). Conditions: for Cmax / AUC(0-t): mouse, plasma; for AUC(0-t): read-out: AUC0-24. It is filed as in vivo, C57bl/6 mice. Here is the method: as §1, §2, §3, §4, §5, §6, §7

For orientation: EC50 means the concentration giving half of the maximal effect. For orientation: Cmax means the peak of the concentration-time curve.

On to `NCC[C@H](NC(=O)[C@@H]1Cc2ccccc2CN1C(=O)CCC(=O)c1ccccc1)C(=O)Nc1ccc(Cl)c(Cl)c1` [Compound 2-1, (S)—N—((S)-4-amino-1-((3,4-dichlorophenyl)amino)-1-oxobutan-2-yl)-2-(4-oxo-4-phenylbutanoyl)-1,2,3,4-tetrahydroisoquinoline-3-carboxamide], for which, on CXCR3, the 50% effective concentration (EC50) lay within 50 to 250 nM. In series [1], the “apparent oral clearance (CL/F)” value was 66 mL/min/kg, the highest concentration (Cmax) was 1800 nM and the AUC(0-t) was 4.3 µM·h.
For `Cc1cc(NC(=O)[C@H](CCN)NC(=O)[C@@H]2Cc3ccccc3CN2C(=O)CCC(=O)c2ccccc2)c(F)cc1Cl` [Compound 2-18] the same measures were < 50 nM, 47 mL/min/kg, 2900 nM and 6.2 µM·h.
On to `CC1(C)CCCCN1C(=O)CCC(=O)N1Cc2ccccc2C[C@H]1C(=O)N[C@@H](CCN)C(=O)Nc1ccc(Cl)c(Cl)c1F` [Compound 15-3], for which, in series [2] (C57BL/6, 60 mg/kg, female mice), the “apparent oral clearance (CL/F)” value is reported as 666 mL/min/kg, the Cmax stood at 600 nM and the AUC(0-t) was 2.4 µM·h. Further, the EC50 on CXCR3 was < 50 nM.
On to `Cc1cc(NC(=O)[C@H](CCCCN)NC(=O)[C@@H]2Cc3ccccc3CN2C(=O)CCC(=O)c2ccccc2)ccc1Cl` [Compound 1-14], for which, in series [2] (C57BL/6, 10 mg/kg, male mice), the Cmax was 6 nM and the AUC(0-t) turned out to be 0.011 µM·h. On CXCR3, the EC50 was < 50 nM.
Regarding `N#Cc1cc2c(cc1NC(=O)[C@H](CCN)NC(=O)[C@@H]1Cc3ccccc3CN1C(=O)CCC(=O)c1ccccc1)CCC2` [Compound 2-57], in series [2] (C57BL/6, 60 mg/kg, female mice), the “apparent oral clearance (CL/F)” value is given as 393 mL/min/kg, the Cmax was 1500 nM and the AUC(0-t) was determined as 4.4 µM·h. The EC50 at CXCR3 is < 50 nM.
The matching figures for `Cc1cccc(NC(=O)[C@H](CCN)NC(=O)[C@@H]2Cc3ccccc3CN2C(=O)CCC(=O)c2ccccc2)c1C` [Compound 2-49]: 131 mL/min/kg, 7100 nM, 14.1 µM·h and < 50 nM.
Take `O=C(CCC(=O)N1Cc2ccccc2C[C@H]1C(=O)NC1(C(=O)Nc2ccc(Cl)c(Cl)c2F)CCNCC1)c1ccccc1` [Compound 4-14]: in series [2] (C57BL/6, 60 mg/kg, female mice), the “apparent oral clearance (CL/F)” value amounted to 16 mL/min/kg, the Cmax is 5200 nM and the AUC(0-t) turned out to be 99 µM·h. Further, the concentration giving a half-maximal response (EC50) on CXCR3 is < 50 nM.
The matching figures for `CC1(C)CCN(C(=O)CCC(=O)N2Cc3ccccc3C[C@H]2C(=O)N[C@@H](CCN)C(=O)Nc2ccc(Cl)c(Cl)c2F)C1` [Compound 15-2]: 347 mL/min/kg, 1800 nM, 4.6 µM·h and < 50 nM.
In the case of `NCC[C@H](NC(=O)[C@@H]1Cc2ccccc2CN1C(=O)CCC(=O)N1CCCC12CCC2)C(=O)Nc1ccc(Cl)c(Cl)c1F` [Compound 12-152], in series [2] (C57BL/6, 60 mg/kg, female mice), the “apparent oral clearance (CL/F)” value is on record as 190 mL/min/kg, the Cmax was determined as 2800 nM and the AUC(0-t) turned out to be 8.3 µM·h. The EC50 on CXCR3 was < 50 nM.
For `NCC[C@H](NC(=O)[C@@H]1Cc2ccccc2CN1C(=O)CCC(=O)N1CCCC2(CCC2)C1)C(=O)Nc1ccc2c(c1)CCC2` [Compound 10-8] the same measures were 431 mL/min/kg, 1500 nM, 3.9 µM·h and < 50 nM.
The matching figures for `Cc1cc(NC(=O)[C@H](CCN)NC(=O)[C@@H]2Cc3ccccc3CN2C(=O)CCC(=O)N(C)CC(C)(C)C)ccc1Cl` [Compound 12-114]: 823 mL/min/kg, 600 nM, 2.1 µM·h and < 50 nM.
As for `COc1cc(Cl)c(Cl)cc1NC(=O)[C@H](CCN)NC(=O)[C@@H]1Cc2ccccc2CN1C(=O)CCC(=O)c1ccccc1` [Compound 2-23], in series [2] (C57BL/6, 60 mg/kg, male mice), the “apparent oral clearance (CL/F)” value turned out to be 88 mL/min/kg, the highest concentration (Cmax) came to 3900 nM and the AUC(0-t) worked out at 19 µM·h. On CXCR3, the EC50 is < 50 nM.
